Results taken from patent publication US11447504B2, “Macrocyclic chlorine substituted indole derivatives” (Bayer Aktiengesellschaft, priority 2017, dated 2022).
pEC50, pIC50: −log10 of the molar value. Structures can show the parent of a compound that is named as a salt. Where two headings read alike, the source gives them in different places.

Columns and labels:
[1] = molecular target: BCL-2 (Homo sapiens (Human), UniProt P10415); experiment: Protein-protein interaction assay BCL-2/Bad BH3 peptide (BCL-2 Assay, TR-FRET); assay type: binding; conditions: read-out: BCL-2 Assay IC50 (median)
Sequence of BCL-2 (P10415 other isoform, or with tags, fused parts or gaps): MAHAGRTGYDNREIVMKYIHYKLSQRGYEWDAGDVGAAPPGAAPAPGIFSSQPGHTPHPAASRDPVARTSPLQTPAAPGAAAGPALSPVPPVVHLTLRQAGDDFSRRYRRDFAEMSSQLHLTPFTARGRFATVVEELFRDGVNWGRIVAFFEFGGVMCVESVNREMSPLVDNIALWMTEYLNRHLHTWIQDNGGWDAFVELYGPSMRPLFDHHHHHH
How it was run: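 His-BCL-2 pre-equilibrated with compound 10 min at 22° C., then incubated with Bad BH3 peptide 1 h at 22° C. in dark and overnight at 4° C.; TR-FRET ratio read.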

[2] = system: SUDHL10; experiment: Induction of caspase-3/7 activity (Assay 4), SUDHL10; assay type: cell-based; conditions: SUDHL10 cells
How it was run: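 SUDHL10 DLBCL cells treated with compounds for 3 hours at 37 °C in a humidified incubator. Caspase-3/7 activity read with Caspase-Glo 3/7 luminescent reagent. Medium-only background subtracted from all values.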

[3] = molecular target: full length endogenous MCL1 protein (Homo sapiens (Human), UniProt Q07820); experiment: PIxEL: protein-protein interaction in permeabilized cells by ELISA (Assay 5); assay type: cell-based; conditions: permeabilized RKO cells, biotin-BIM BH3 peptide, read-out: PIxEL IC50 (median)
Sequence of full length endogenous MCL1 protein (Q07820 whole entry): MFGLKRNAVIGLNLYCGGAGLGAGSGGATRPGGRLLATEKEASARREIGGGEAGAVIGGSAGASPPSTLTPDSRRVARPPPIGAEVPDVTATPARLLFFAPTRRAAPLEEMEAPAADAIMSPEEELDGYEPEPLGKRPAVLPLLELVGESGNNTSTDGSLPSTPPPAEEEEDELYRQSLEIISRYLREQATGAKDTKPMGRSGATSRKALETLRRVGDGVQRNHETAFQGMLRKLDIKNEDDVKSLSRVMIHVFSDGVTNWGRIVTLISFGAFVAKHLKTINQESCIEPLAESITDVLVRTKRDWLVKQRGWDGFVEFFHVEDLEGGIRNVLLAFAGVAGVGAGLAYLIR
Description: PIxEL: Protein-Protein Interaction in Permeabilized Cells by ELISA
Most MCL1 protein molecules are localized at the mitochondria outer membrane and sequester pro-apoptotic proteins through binding of their BCL2 homology domain 3 (BH3 domain). MEB buffer (150 mM mannitol, 10 mM HEPES pH 7.5, 50 mM KCl, 20 μM EDTA, 20 μM EGTA, 5 mM potassium succinate, 0.1% protease-free BSA (SIGMA) with low dose digitonin (0.002%) permeabilizes plasma membrane while leaves live mitochondria, where MCL1 maintains its native localization and conformation. Unlike biophysical assays (e.g. TR-FRET) that use truncated recombinant MCL1 protein, this assay uses full length endogenous MCL1 protein at mitochondria outer membrane. It measures the interaction between MCL1 protein and biotinylated BIM BH3 peptide. Compounds can compete with BIM BH3 peptide to bind to MCL1 protein. This serum free assay measures the affinity between MCL1 protein and compound in permeabilized cells, therefore it is not affected by serum binding and cell permeability, and can measure the intrinsic compound affinity.
On day 1, RKO colon cancer cell line cells were plated at 0.8 million cells/ml, 100 μl/well in 96-well flat bottom TC plates (Corning). MCL1 antibody (Santa Cruz sc-12756) were diluted at 200 fold (final concentration 1 μg/ml) in carbonate buffer (Thermo Fisher Scientific, pH 9.6), and 50 μl of diluted antibody was added to each well of high bind ELISA plates ([…]). Each plate was tapped to make sure liquid covering entire bottom of wells and incubate at 37° C. overnight.
On the second day, MCL1 antibody was washed from ELISA plate. 250 μl Odyssey® Blocking Buffer (PBS) (Li-Cor) was added to each well, incubated at room temperature for at least 1 hour, then washed once with 250 μl 1×PBST. Plates with RKO cells were gently washed once with 100 μl/well PBS, once with 100 μl/well MEB buffer without digitonin, then 100 μl of MEB buffer with 0.002% digitonin was gently added to each well. Compounds were added with HP Tecan compound dispenser in 3-fold dilution series, highest dose 30 μM, 10-dose per compound in quadruplicates. Biotin-BIM peptide (synthesized by 21st Century) was added with HP Tecan compound dispenser at 0.2 μM immediately after the addition of compounds. Plates were rocked for 1 h at room temperature. Then MEB buffer was aspirated and 50 μl of CHAPS buffer (50 mM Tris-Cl, pH 7.4, 150 mM NaCl, 1% CHAPS, 1 mM EDTA, 1 mM EGTA, complete protease inhibitors (Roche), PhosSTOP (Roche)) was added to each well. […]
On the third day, ELISA plates were washed once with 250 μl 1×PBST. […] Plates were shaken for 1 minute then luminescence was measured by Envision plate reader (HP). […] IC50 was calculated using Graphic Pad PRISM software.

[4] = system: SUDHL5; experiment: Antiproliferation assay 7, SUDHL5; assay type: cell-based; conditions: SUDHL5 cells, CellTiter-Glo, read-out: Antiproli SUDHL5 IC50 (median)
How it was run: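 Anti-proliferative effect is determined from CellTiter-Glo signal after a 72-hour incubation at 37° C, with a time-zero reference plate measured in parallel.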

[5] = system: SUDHL10; experiment: Induction of cytotoxicity (Assay 6), SUDHL10
Description: Assay 6 Induction of Cytotoxicity Upon Treatment of Cells with Selected Compounds
Therefore, cytotoxicity assays were run in parallel in SUDHL5 and SUDHL10 cells.
The different cell lines were plated in culture medium (RPMI 1640 [GIBCO #22400-089]supplemented with 10% Fetal Bovine Serum) at a density of 3,300 cells in 30 μL/well in a sterile, solid black, flat bottom, polystyrene, TC-treated 384-well microplate (Corning #3571) using Multidrop Combi Reagent Dispenser. As a control, medium without cells was also added to the plate. Cells were incubated in a humidified incubator at 37° C. overnight. […] Rim wells were excluded. The cells were incubated for 5 hours in a humidified incubator at 37° C. After this incubation, 30 μL of CellTiter-Glo® Luminescent Cell Viability reagent (Promega, G7573) was added to each well using the Multidrop Combi Reagent Dispenser, followed by 15 minutes incubation on a shaker at room temperature. Finally, luminescence was read at 0.1 ms, with a gain of 3000 using the PHERAstar FS microplate reader (BMG Labtech).

[6] = 3 hours, Caspase-Glo 3/7, read-out: Caspase SUDHL10 EC50 (median)
[7] = read-out: Cytotox SUDHL10 IC50 (median), SUDHL10 cells, 5 hours, CellTiter-Glo

Structure (SMILES)	pIC50 [1]	pEC50 ([2]; Homo sapiens, SU-DHL10, 3 h, Caspase-Glo 3/7, read-out: Caspase SUDHL10 EC50 (median))	IC50 ([3]; printed in uM) [µM]	pIC50 ([4]; Homo sapiens, SU-DHL-5, 72 h)	pIC50 ([5]; Homo sapiens, SU-DHL10, 5 h, read-out: Cytotox SUDHL10 IC50 (median), SUDHL10 cells, 5 hours, CellTiter-Glo)	pEC50 [2, 6]	pIC50 [3]	pIC50 ([4]; 72 hours)	pIC50 [5, 7]
Cc1c2c(nn1C)N(C)CCCCCn1c(C(=O)O)c(CCCOc3cccc4ccccc34)c3ccc(Cl)c-2c31 (racemic) [Example 71, (rac)-4-chloro-2,3,15-trimethyl-7-{3-[(naphthalen-1-yl)oxy]propyl}-10,11,12,13,14,15-hexahydro-2H-pyrazolo[4′,3′:4,5][1,6]diazacycloundecino[3,2,1-hi]indole-8-carboxylic acid]	< 4.70	5.74	> 30	5.70	5.57	–	–	–	–
Cc1c2c(nn1C)N(C)CCCCCn1c(C(=O)O)c(CCCOc3cccc4cc(F)ccc34)c3ccc(Cl)c-2c31 (racemic) [Example 74, (rac)-4-chloro-7-{3-[(6-fluoronaphthalen-1-yl)oxy]propyl}-2,3,15-trimethyl-10,11,12,13,14,15-hexahydro-2H-pyrazolo[4′,3′:4,5][1,6]diazacycloundecino[3,2,1-hi]indole-8-carboxylic acid]	4.72	–	–	–	–	6.00	6.67	6.09	5.89
CCc1c2c(nn1C)N(C)CCCCCn1c(C(=O)O)c(CCCOc3cccc4cc(F)ccc34)c3ccc(Cl)c-2c31 (single isomer, unassigned; enantiomer 1) [Example 78, 4-chloro-3-ethyl-7-{3-[(6-fluoronaphthalen-1-yl)oxy]propyl}-2,15-dimethyl-10,11,12,13,14,15-hexahydro-2H-pyrazolo[4′,3′:4,5][1,6]diazacycloundecino[3,2,1-hi]indole-8-carboxylic acid-N-ethylethanamine Salt—Enantiomer 1]	< 4.70	–	–	5.64	–	6.49	7.43	–	6.15
Cc1c2c(nn1C)N(C)CCCCCn1c(C(=O)O)c(CCCOc3cccc4cc(F)ccc34)c3ccc(Cl)c-2c31 [Example 75, (+)-4-chloro-7-{3-[(6-fluoronaphthalen-1-yl)oxy]propyl}-2,3,15-trimethyl-10,11,12,13,14,15-hexahydro-2H-pyrazolo[4′,3′:4,5][1,6]diazacycloundecino[3,2,1-hi]indole-8-carboxylic acid-N-ethylethanamine salt]	4.72	–	–	–	–	6.13	6.84	6.28	6.09
